# Literature values as cited in paper PMC11859340, “The Therapeutic Potential of Spirooxindoles in Cancer: A Focus on p53–MDM2 Modulation” (Pharmaceuticals, 2025).
# Like-named read-outs stand apart in the source and are kept apart here.
# How the values were obtained:
# LNCaP (p53+) = test system: LNCaP (p53+); parameters: method as in PMID 30735387; conditions: MTT; read-out: IC50 against LNCaP (p53+)
# PC-3 (p53−) = test system: PC-3 (p53−); parameters: method as in PMID 30735387; conditions: MTT; read-out: IC50 against PC-3 (p53−)
# MCF7 = test system: MCF7; parameters: method as in PMID 25618595; conditions: MTT; read-out: IC50 against MCF7
# tumor growth = test system: tumor growth; parameters: method as in PMID 25618595; conditions: 20 mg/kg body weight over 14 days
# HEK-293 = test system: HEK-293; parameters: method as in PMID 25618595; conditions: human kidney normal cell line; read-out: IC50 against HEK-293
# VERO = test system: VERO; parameters: method as in PMID 25618595; conditions: monkey kidney normal cell line; read-out: IC50 against VERO
# MD-MB-231 = test system: MD-MB-231; parameters: method as in PMID 25618595; conditions: MTT; read-out: IC50 against MD-MB-231
# Caco-2 (colon) = test system: Caco-2 (colon); parameters: method as in PMID 34970530; conditions: MTT; read-out: IC50 against Caco-2
# MDA-MB231 (breast) = test system: MDA-MB231 (breast); parameters: method as in PMID 34970530; conditions: MTT; read-out: IC50 against MDA-MB231
# MCF7 (breast) [1] = test system: MCF7 (breast); parameters: method as in PMID 26256638; conditions: MTT; read-out: IC50 against MCF7
# HepG-2 (liver) = test system: HepG-2 (liver); parameters: method as in PMID 34970530; conditions: MTT; read-out: IC50 against HepG-2
# PC3 = test system: PC3; parameters: method as in doi:10.3390/separations10040225; conditions: MTT; read-out: IC50 against PC3
# MDA-MB-231 = test system: MDA-MB-231; parameters: method as in doi:10.3390/separations10040225; conditions: MTT; read-out: IC50 against MDA-MB-231
# MDM2 [2] = target: MDM2; parameters: method as in doi:10.3390/separations10040225; conditions: MST; read-out: KD, MST binding affinity for MDM2
# HCT116^−/− = test system: HCT116^−/−; parameters: method as in PMID 34946727; conditions: MTT; read-out: CC50 against HCT116^−/−
# HCT116^+/+ = test system: HCT116^+/+; parameters: method as in PMID 34946727; conditions: MTT; read-out: CC50 against HCT116^+/+
# HCT116 p53^+/+ = test system: HCT116 p53^+/+; parameters: method as in PMID 28800455; conditions: read-out: IC50 against HCT116 p53^+/+
# HCT116 p53^−/− = test system: HCT116 p53^−/−; parameters: method as in PMID 28800455; conditions: read-out: IC50 against HCT116 p53^−/−
# HCT116 (colon) [3] = test system: HCT116 (colon); parameters: method as in PMID 26883465; conditions: MTT; read-out: IC50 against HCT116
# MDA-MB-231 (breast) [4] = test system: MDA-MB-231 (breast); parameters: method as in PMID 26883465; conditions: MTT; read-out: IC50 against MDA-MB-231
# A549 (lung) [5] = test system: A549 (lung); parameters: method as in PMID 26883465; conditions: MTT; read-out: IC50 against A549
# HCT116 (colon) [6] = test system: HCT116 (colon); parameters: method as in PMID 28797774; conditions: CCK-8; read-out: IC50 against HCT116
# A549 (lung) [7] = test system: A549 (lung); parameters: method as in PMID 28797774; conditions: CCK-8; read-out: IC50 against A549
# MCF7 (breast) [8] = test system: MCF7 (breast); parameters: method as in PMID 28797774; conditions: CCK-8; read-out: IC50 against MCF7
# neuroblastoma = test system: neuroblastoma; parameters: method as in PMID 29416773; conditions: oral 50 mg/kg body weight for 50 days, 4 days on and 2 days off
# [9] = test system: osteosarcoma, acute leukemia, prostate, colon, and dedifferentiated liposarcoma cancers; conditions: mouse xenograft models
# MDM2 [10] = target: MDM2; parameters: method as in PMID 36174446; conditions: read-out: KD against MDM2
# PC3 (prostate) = test system: PC3 (prostate); parameters: method as in PMID 36174446; conditions: MTT; read-out: IC50 against PC3
# A549 (lung) [11] = test system: A549 (lung); parameters: method as in PMID 36174446; conditions: MTT; read-out: IC50 against A549
# MDA-MB-231 (breast) [12] = test system: MDA-MB-231 (breast); parameters: method as in PMID 36174446; conditions: MTT; read-out: IC50 against MDA-MB-231
# HCT-116 (colon) = test system: HCT-116 (colon); parameters: method as in PMID 36174446; conditions: MTT; read-out: IC50 against HCT-116
# MDM2 [13] = test system: MDM2; parameters: method as in PMID 37175323; conditions: induction of protein degradation
# p53 [14] = test system: p53; parameters: method as in PMID 37175323; conditions: 22Rv1 and LNCaP, dose-dependent
# HCT116 (p53^−/−) [15] = test system: HCT116 (p53^−/−); parameters: method as in PMID 24268795; conditions: read-out: GI50 against HCT116 (p53^−/−)
# MCF7 (breast) [16] = test system: MCF7 (breast); parameters: method as in PMID 29302672; conditions: at 10 μM, CCK-8
# HCT116 (colon) [17] = test system: HCT116 (colon); parameters: method as in PMID 29302672; conditions: at 10 μM, CCK-8
# breast MCF7 = test system: breast MCF7; parameters: method as in PMID 31047751; conditions: CCK-8
# lung A549 = test system: lung A549; parameters: method as in PMID 31047751; conditions: CCK-8
# [18] = test system: HepG2 (hepatocellular wild p53 type); parameters: method as in PMID 24268795; conditions: read-out: GI50 against HepG2
# A549 (lung) [19] = test system: A549 (lung); parameters: method as in PMID 29302672; conditions: at 10 μM, CCK-8
# colon HCT116 = test system: colon HCT116; parameters: method as in PMID 31047751; conditions: at 10 μM, CCK-8
# HCT116 (p53^−/−) [20] = test system: HCT116 (p53^−/−); parameters: method as in PMID 28987608; conditions: MTT; read-out: IC50 against HCT116 (p53^−/−)
# p53 [21] = test system: p53; parameters: method as in doi:10.1080/10426507.2020.1723590
# [22] = test system: HEK293T (embryonic kidney); parameters: method as in doi:10.1080/10426507.2020.1723590; conditions: MTT; read-out: IC50 against HEK293T
# A549 (lung) [23] = test system: A549 (lung); parameters: method as in doi:10.1080/10426507.2020.1723590; conditions: MTT; read-out: IC50 against A549
# HCT116 (p53^−/−) [24] = test system: HCT116 (p53^−/−); parameters: method as in doi:10.1039/C5MD00450K; conditions: read-out: GI50 against HCT116 (p53^−/−)
smiles,measurement,setting,value
COC(=O)C1([N+](=O)[O-])C[C@@H](c2ccccc2)N(c2ccccc2)[C@]12C(=O)Nc1ccccc12 (stereo partly shown),IC50,LNCaP (p53+),6.2 to 7.9 µM
same,IC50,PC-3 (p53−),6.8 to 8.5 µM
O=C(c1ccc(OCCN2CCCCC2)cc1)C1[C@H](c2ccccc2)[C@@H](c2ccccc2)NC12C(=O)Nc1ccc(Cl)cc12 (stereo partly shown),IC50,MCF7,6.5 µM
same,tumor growth compared to the untreated control group,tumor growth,reduction in tumor growth
same,IC50,HEK-293,> 50 µM
same,IC50,VERO,> 50 µM
same,IC50,MD-MB-231,3.7 µM
O=c1[nH]cc(F)c(=O)[nH]1 [5-fluorouracil],IC50,Caco-2 (colon),1.05 ± 0.156 µM
same,IC50,MDA-MB231 (breast),7.05 ± 0.204 µM
same,IC50,MCF7 (breast) [1],10.5 ± 1.6 µM
same,IC50,HepG-2 (liver),4.83 ± 0.296 µM
O=C(c1nc2ccccc2[nH]1)[C@H]1[C@H](c2ccc(Cl)cc2)C2CC3CCCCC3N2[C@]12C(=O)Nc1ccc(Cl)cc12 (stereo partly shown) [39 (R = 4-ClC6H4)],IC50,PC3,4.574 ± 0.011 µM
same,IC50,MDA-MB-231,4.76 ± 0.069 µM
same,Kd,MDM2 [2],2.38 µM
"COc1ccc(N2C(=O)[C@@]3(CN(C)C[C@@]34C(=O)Nc3ccc(Cl)cc34)NC2=S)cc1 [84 (X = S, R = Cl, R’ = 4-MeOC6H4)]",CC50,HCT116^−/−,2.35 ± 0.95 µM
same,CC50,HCT116^+/+,1.95 ± 0.43 µM
"O=C1Nc2ccc(Br)cc2[C@]12[C@@H](c1ccccc1)C(c1ccccc1)=NN2c1ccccc1 [97 (R = 5-Br, R^1 = R^3 = H, R^2 = Ph)]",IC50,HCT116 p53^+/+,13.1 ± 1 µM
same,IC50,HCT116 p53^−/−,14.2 ± 0.8 µM
"COC(=O)C[C@@H]1CS[C@]2(C(=O)Nc3cccc(Br)c32)[C@H](c2ccc(Br)cc2)[C@H]1C=O [136 (R = 4-Br, R’ = 4-BrC6H4)]",IC50,HCT116 (colon) [3],1.57 µM
same,IC50,MDA-MB-231 (breast) [4],3.55 µM
same,IC50,A549 (lung) [5],1.67 µM
CCN(CC)c1ccc(N2C[C@H]3[C@@H](CS[C@]4(C(=O)Nc5cccc(Br)c54)[C@@H]3c3ccc(Br)cc3)CC2=O)cc1 [143 (R = 4-(4-diethylamino)C6H4)],IC50,HCT116 (colon) [6],1.8 ± 0.5 µM
same,IC50,A549 (lung) [7],2.9 ± 0.2 µM
same,IC50,MCF7 (breast) [8],2.4 ± 0.1 µM
CC1(C)CCC2(CC1)N[C@@H](C(=O)N[C@@H]1CC[C@@H](C(N)=O)OC1)[C@H](c1ccnc(Cl)c1F)[C@]21C(=O)Nc2cc(Cl)ccc21 [Milademetan],tumor growth and survival,neuroblastoma,tumor growth inhibition and extended survival
CC(C)(C)C[C@@H]1N[C@@H](C(=O)N[C@H]2CC[C@H](O)CC2)[C@H](c2cccc(Cl)c2F)[C@]12C(=O)Nc1cc(Cl)ccc12 [SAR405838],cancer inhibition,[9],recognizable or complete cancer inhibition
O=C(c1nc2ccccc2[nH]1)[C@H]1[C@H](c2ccccc2)C2CC3CCCCC3N2[C@]12C(=O)Nc1ccc(Cl)cc12 (stereo partly shown) [compound 38],Kd,MDM2 [10],7.94 µM
same,IC50,PC3 (prostate),3.4 ± 0.3 µM
same,IC50,A549 (lung) [11],7.8 ± 0.3 µM
same,IC50,MDA-MB-231 (breast) [12],2.4 ± 0.2 µM
same,IC50,HCT-116 (colon),7.2 ± 0.3 µM
COc1cc(C(N)=O)ccc1NC(=O)[C@H]1[C@H](c2cccc(Cl)c2F)C2(C(=O)Nc3cc(Cl)ccc32)[C@H](CC(C)(C)C)N1C(=O)OCCOCCOCCOCCOC(=O)N1[C@@H](CC(C)(C)C)[C@@]2(C(=O)Nc3cc(Cl)ccc32)[C@@H](c2cccc(Cl)c2F)[C@@H]1C(=O)Nc1ccc(C(N)=O)cc1OC (stereo partly shown) [compound 44],MDM2 level,MDM2 [13],Downregulation of MDM2
same,p53 levels,p53 [14],increase in p53 levels
"COc1ccc(C2=N[C@@H](c3ccc(Cl)cc3)[C@@H](c3ccc(Cl)cc3)N2C(=O)N2CCNC(=O)C2)c(OC(C)C)c1 [nutlin-3, reference compound]",IC50,MCF7,11.6 µM
same,GI50,HCT116 (p53^−/−) [15],52.3 ± 1.15 µM
same,"% inhibition, MCF7",MCF7 (breast) [16],33.1%
same,"% inhibition, HCT116",HCT116 (colon) [17],42.9%
same,IC50,HCT116 (colon) [6],14.9 ± 0.6 µM
same,IC50,HCT116 (colon) [3],1.16 µM
same,IC50,breast MCF7; read-out: IC50 against MCF7,12.1 µM
same,"% inhibition, MCF7",breast MCF7; at 10 μM,32.8%
same,IC50,MDA-MB-231 (breast) [4],4.68 µM
same,IC50,lung A549; read-out: IC50 against A549,2.4 µM
same,"% inhibition, A549",lung A549; at 10 μM,47.0%
same,IC50,MD-MB-231,23.5 µM
same,GI50,[18],51.3 ± 1.04 µM
same,IC50,A549 (lung) [7],10 ± 0.8 µM
same,IC50,MCF7 (breast) [8],28.4 ± 2.5 µM
same,"% inhibition, A549",A549 (lung) [19],42.9%
same,"% inhibition, HCT116",colon HCT116,64.4%
same,IC50,A549 (lung) [5],2.22 µM
"COc1ccc(C2=N[C@@H](c3ccc(Cl)cc3)[C@@H](c3ccc(Cl)cc3)N2C(=O)N2CCNC(=O)C2)c(OC(C)C)c1 [nutlin-3a, reference compound]",IC50,HCT116 (p53^−/−) [20],47.8 ± 1.9 µM
same,p53 reporter activation,"p53 [21]; A549, 1.56 to 100 μM compound concentrations",3.6 to 5.1 folds
same,p53 receptor activation,"p53 [21]; A549, at 100 μM",5.1 fold
same,IC50,[22],10.4 ± 0.8 µM
same,IC50,PC-3 (p53−),28.1 to 29.6 µM
same,IC50,A549 (lung) [23],14.9 ± 0.6 µM
same,GI50,HCT116 (p53^−/−) [24],47.8 ± 1.9 µM
